One may read the inhibition as the drop in the measured response relative to a control, in per cent.

Read-outs that look alike come from different tables or passages of the source. Bounds are passed on as bounds.

Test [1] has as its system MDA-MB-231 derived tumor. Nature of the test: Test of suppressing tumor growth by drug administration using tumor-bearing mice. The format is in vivo, nude mice. The conditions noted are these: MDA-MB-231 derived tumor-bearing mice; 0.3 mg/kg orally once-daily for 14 days. The protocol:
(§1) A cultured triple negative breast cancer cell line was injected under the skin of nude mice to create cancer-bearing mice, and a tumor tissue was established and a PI3K inhibitor and an MEK inhibitor were then administered. Tumor volumes were measured to observe an anti-tumor effect. The method for preparing a tumor-bearing mice and the administration route are as follows.
(§2) The cell lines of MDA-MB-231, HCC70 and SUM185PE were cultured by the above-described method, and after release with trypsin, the cells was suspended with Matrigel basement membrane matrix (manufactured by Corning Incorporated) to about 7×10^6 cells/mL to prepare a cell suspension. Using a 27 gauge syringe, 0.1 mL of cell suspension was injected under the skin of 5-week old female nude mice (manufactured by CLEA Japan, Inc.) to prepare tumor-bearing mice.
(§3) Trametinib, an MEK inhibitor, and wortmannin, a PI3K inhibitor, were each dissolved in PBS with 1% dimethylsulfoxide (DMSO) to 0.3 mg/kg to obtain a drug solution. In addition, PBS with 1% DMSO was used as a control.
(§4) Individuals whose tumor volume reached 300 mm^3 were randomly divided into 3 groups and administration was initiated. As an administration route, a drug solution was orally administered once-daily for 14 days and the tumor volume was observed. The tumor volume was calculated by major axis×(minor axis)^2/2.
(§5) FIGS. 33 to 35 show the results of the test of suppressing tumor growth by each inhibitor using the number of individuals N=6 in each group (Control group, Trametinib-administered group and Wortmannin-administered group) (FIG. 33: MDA-MB-231 derived tumor-bearing mice, FIG. 34: HCC70 derived tumor-bearing mice, and FIG. 35: SUM185PE derived tumor-bearing mice). […] Mann-Whitney U test was used as the test method.

In test [2] the test system is SUM185PE derived tumor. The test is described as above. The test is classed as in vivo, nude mice. The conditions noted are these: 0.3 mg/kg orally once-daily for 14 days. As to the method: as §1, §2, §3, §4, §5
Test [3] relates to HCC70 derived tumor. The description is as above. The test is classed as in vivo, nude mice. The note with it: 0.3 mg/kg orally once-daily for 14 days. As to the method:
as §1, §2, §3, §4, §5

Test [4] concerns MDA-MB-453 (LAR) cells. Nature of the test: Drug sensitivity assay (cell growth test), sulforhodamine B. The note with it: Homo sapiens, 72 hours; for inhibition at 0.1 µM: MDA-MB-453, 100 nM, index 12.5% growth inhibition rate; for inhibition at 1 µM: MDA-MB-453, 1 μM, index 25% growth inhibition rate; for inhibition at 10 µM: MDA-MB-453, 10 μM, index 50% growth inhibition rate. The format is cell-based. As to the method:
(§6) Cultured cells were treated with a MEK inhibitor and a PI3K inhibitor in various concentrations, and cell lines sensitive to MEK and PI3K were classified by calculating a cell growth inhibition rate. The culture method and analysis method are as follows.
(§7) Thirteen types of cells used in the present study, HCC38 (BL1), MDA-MB-231 (MSL), DU4475 (IM), HCC1187 (IM), HCC1143 (BL1), HCC1395 (LAR), HCC1937 (BL1), MDA-MB-453 (LAR), HCC70 (BL2), HS578T (MSL), MDA-MB-157 (MSL) and MDA-MB-468 (BL1), were obtained from American type culture collection (ATCC), and SUM185PE (LAR) was obtained from ASTERAND BIOSCIENCE. All the cells belong to triple negative breast cancer (TNBC), and it is known which of six types (BL1, BL2, M, MSL, IM and LAR) these belong to by an existing classification method.
(§8) All the cells were cultured in a medium designated from a source of supply, and 2 mM L-glutamine and 10% fetal bovine serum (FBS) were supplemented.
(§9) Each type of cells was seeded in a 96 well titer plate at 1×10^4 cells/well, and trametinib, an MEK inhibitor (Medchem Express; 0.08, 0.16, 0.31, 0.63, 1.25, 2.5, 5, 10 and 20 μM), and wortmannin, a PI3K inhibitor (Wako Pure Chemical Industries, Ltd.; 0.08, 0.16, 0.31, 0.63, 1.25, 2.5, 5, 10 and 20 μM) were dissolved in Dimethyl Sulfoxide [DMSO] (Wako Pure Chemical Industries, Ltd.) in various concentrations and treated. In addition, the effect on cell growth was examined at 72 hours after the inhibitor by sulforhodamine B assay (manufactured by SIGMA-ALDRICH), and 50 μL of sulforhodamine B solution was added to each well and cells were left at room temperature for an hour for staining. The staining degree of metabolically survival cells was examined by monitoring absorbance at a wavelength of 565 nm using a microtiter plate. The absorbance of cells which were not treated with trametinib and wortmannin (treated with DMSO) was used as a control and defined as 100% to calculate a cell growth inhibition rate.
(§10) The cell lines were classified into 4 types, cell lines sensitive to wortmannin (hereinafter, PA), cell lines sensitive to trametinib (hereinafter, MA), cell lines resistant to wortmannin and trametinib (hereinafter, R), and others (hereinafter, S). In the classification, first the inhibition rate of each drug was calculated in a concentration of 1 μM, and the inhibition rate (%) by trametinib and the inhibition rate (%) by wortmannin were plotted on the X axis and Y axis respectively on a graph.
(§11) The cell lines were classified into 4 types, cell lines sensitive to wortmannin (hereinafter, PA), cell lines sensitive to trametinib (hereinafter, MA), cell lines resistant to wortmannin and trametinib (hereinafter, R), and others (hereinafter, S). In the classification, first the inhibition rate of each drug was calculated in a concentration of 100 nM, and the inhibition rate (%) by trametinib and the inhibition rate (%) by wortmannin were plotted on the X axis and Y axis respectively on a graph.
as §10, with “10” for “1”, “graph. Using a 50% growth inhibition rate as an index of the inhibitive effect of a drug, cells were classified into 4 types by grid analysis.” for “graph.”

Test [5] deals with HCC38 (BL1) cells. Described as above. The test is classed as cell-based. The note with it: Homo sapiens, 72 hours; for inhibition at 0.1 µM: HCC38, 100 nM, index 12.5% growth inhibition rate; for inhibition at 1 µM: HCC38, 1 μM, index 25% growth inhibition rate; for inhibition at 10 µM: HCC38, 10 μM, index 50% growth inhibition rate. As to the method:
as §6, §7, §8, §9, §10, §11
as §10, with “10” for “1”, “graph. Using a 50% growth inhibition rate as an index of the inhibitive effect of a drug, cells were classified into 4 types by grid analysis.” for “graph.”

For test [6], the system named is DU4475 (IM) cells. Described as above. The format is cell-based. The note with it: Homo sapiens, DU-4475, 72 hours; for inhibition at 0.1 µM: DU4475, 100 nM, index 12.5% growth inhibition rate; for inhibition at 1 µM: DU4475, 1 μM, index 25% growth inhibition rate; for inhibition at 10 µM: DU4475, 10 μM, index 50% growth inhibition rate. As to the method: as §6, §7, §8, §9, §10, §11
as §10, with “10” for “1”, “graph. Using a 50% growth inhibition rate as an index of the inhibitive effect of a drug, cells were classified into 4 types by grid analysis.” for “graph.”

[7] abbreviates: read-out: inhibition rate (%) by trametinib, classification by grid analysis.
The mark [8] stands for this setting: read-out: inhibition rate (%) by wortmannin, classification by grid analysis.

Take `CC(=O)Nc1cccc(-n2c(=O)n(C3CC3)c(=O)c3c(Nc4ccc(I)cc4F)n(C)c(=O)c(C)c32)c1` [trametinib]: the “suppression of tumor growth (in words)” value in test [1] is given as “significantly suppressed”; in test [2] it was “a significant growth suppressive effect was not obtained”; in test [3] it was “a significant growth suppressive effect was observed”. The inhibition at 0.1 µM in test [4] (setting [7]), in test [5] (setting [7]) and in test [6] (setting [7]) was > 12.5% in each case. Also, the inhibition at 1 µM in test [4] (setting [7]), in test [5] (setting [7]) and in test [6] (setting [7]) was > 25% throughout. Also, the inhibition at 10 µM in test [4] (setting [7]), in test [5] (setting [7]) and in test [6] (setting [7]) was > 50% each time.

Turning to `COC[C@H]1OC(=O)c2coc3c2[C@@]1(C)C1=C(C3=O)[C@@H]2CCC(=O)[C@@]2(C)C[C@H]1OC(C)=O` [wortmannin, Wortmannin], the “suppression of tumor growth (in words)” value in test [1] was “a significant suppressive effect was not obtained”; in test [2] it was “significantly suppressed”; in test [3] it was “a significant growth suppressive effect was observed”. Also, the inhibition at 0.1 µM was > 12.5% in test [4] (setting [8]), < 12.5% in test [5] (setting [8]) and < 12.5% in test [6] (setting [8]). Moreover, the results for the inhibition at 1 µM in test [4] (setting [8]), in test [5] (setting [8]) and in test [6] (setting [8]) were > 25%, < 25% and < 25%, respectively. Also, the inhibition at 10 µM was > 50% in test [4] (setting [8]), < 50% in test [5] (setting [8]) and < 50% in test [6] (setting [8]).

The record behind these values is patent publication US10995359B2, “Method for determining drug-sensitive human cell lines by analysis method in which measurement of activity of two types of protein kinase is used” (NITTO BOSEKI CO., LTD., priority 2015, dated 2021).
